Here are results for nine compounds from PubChem BioAssay (NCI).

Test systems include UACC-257 melanoma; SF-268 CNS; HCT-15 colon; SNB-75 CNS; OVCAR-4 ovarian; MOLT-4 leukemia; SN12C renal; M14 melanoma; SK-MEL-5 melanoma; HT29 colon.
Experiment in all cases: NCI anticancer screen, dose series, 48 h

Molecules are shown by their SMILES.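 Method: 48-hour compound exposure of cells in 96-well plates, five concentrations, linear interpolation of endpoints. At the GI50, growth is halved. The concentration for full growth arrest is given as TGI.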 Bounds are passed on as bounds.

Turning to `C[C@H](Nc1cc(Cl)nc2c1cnn2[C@@H]1O[C@H](COP(=O)(O)CP(=O)(O)O)[C@@H](O)[C@H]1O)c1ccccc1F`, the GI50 in the experiment with UACC-257 melanoma, with SF-268 CNS, with HCT-15 colon, with SNB-75 CNS, in the experiment with OVCAR-4 ovarian and in the experiment with MOLT-4 leukemia was greater than 100 µM each time. The GI50 in the experiment with SN12C renal, with M14 melanoma, with SK-MEL-5 melanoma and in the experiment on HT29 colon was greater than 100 µM each time. The TGI with UACC-257 melanoma, with SF-268 CNS, with HCT-15 colon, in the experiment with SNB-75 CNS, in the experiment on OVCAR-4 ovarian and with MOLT-4 leukemia was greater than 100 µM in each case. For the same compound, the TGI in the experiment on SN12C renal, in the experiment with M14 melanoma, in the experiment with SK-MEL-5 melanoma and in the experiment on HT29 colon was greater than 100 µM each time.
On to `Clc1nc(Cl)nc(Nc2cccc3ccccc23)n1`, for which the GI50 in the experiment on UACC-257 melanoma is greater than 100 µM; with SF-268 CNS, greater than 100 µM; in the experiment with HCT-15 colon, 96.5 µM; with SNB-75 CNS, greater than 100 µM; with OVCAR-4 ovarian, greater than 100 µM; in the experiment on MOLT-4 leukemia, 40.3 µM. Further, the GI50 is greater than 100 µM in the experiment on SN12C renal, greater than 100 µM with M14 melanoma, 67.3 µM in the experiment on SK-MEL-5 melanoma and greater than 100 µM in the experiment with HT29 colon. Also, the TGI in the experiment with UACC-257 melanoma, with SF-268 CNS, with HCT-15 colon, with SNB-75 CNS, with OVCAR-4 ovarian and in the experiment with MOLT-4 leukemia was greater than 100 µM in each case. Also, the TGI in the experiment with SN12C renal, in the experiment with M14 melanoma, in the experiment with SK-MEL-5 melanoma and in the experiment on HT29 colon was greater than 100 µM throughout.
Turning to `O=S(=O)(Nc1ccc(Cl)cc1Cl)c1ccc(-c2cnc(C3CC3)o2)cc1`, the GI50 is 10.5 µM in the experiment on UACC-257 melanoma; 2.85 µM with SF-268 CNS; 0.445 µM in the experiment with HCT-15 colon; 0.185 µM with SNB-75 CNS; 3.72 µM in the experiment on OVCAR-4 ovarian; 0.692 µM in the experiment on MOLT-4 leukemia. For the same compound, the GI50 with SN12C renal is 1.4 µM; in the experiment with M14 melanoma, 0.473 µM; with SK-MEL-5 melanoma, 0.555 µM; in the experiment with HT29 colon, 0.41 µM. Besides, the TGI in the experiment with UACC-257 melanoma was 60.5 µM; in the experiment on SF-268 CNS, 72.9 µM; in the experiment on HCT-15 colon, 40.4 µM; in the experiment on SNB-75 CNS it was 0.75 µM; in the experiment on OVCAR-4 ovarian, greater than 100 µM; in the experiment on MOLT-4 leukemia, greater than 100 µM. For the same compound, the TGI with SN12C renal is 46.2 µM; in the experiment with M14 melanoma, greater than 88.2 µM; in the experiment with SK-MEL-5 melanoma it was 14.1 µM; with HT29 colon, 30.6 µM.
For the compound `CCc1c(Cl)c(C)cc(O)c1Cl`, the TGI is 99.7 µM in the experiment on UACC-257 melanoma; greater than 100 µM in the experiment with SF-268 CNS; 38.9 µM in the experiment with HCT-15 colon; greater than 100 µM in the experiment with SNB-75 CNS; greater than 100 µM in the experiment with OVCAR-4 ovarian; 95.2 µM in the experiment with MOLT-4 leukemia. The TGI with SN12C renal came to 30.9 µM; in the experiment with M14 melanoma, 92.5 µM; with SK-MEL-5 melanoma it was 28.6 µM; with HT29 colon, 77.6 µM.
For `Cc1ccc(S(=O)OCc2c(C)c(C)c(COS(=O)c3ccc(C)cc3)c(C)c2C)cc1` (stereo not given), the TGI in the experiment with UACC-257 melanoma, in the experiment on SF-268 CNS, in the experiment with HCT-15 colon, with SNB-75 CNS, with OVCAR-4 ovarian and in the experiment on MOLT-4 leukemia was greater than 100 µM in each case. Moreover, the TGI in the experiment on SN12C renal, in the experiment on M14 melanoma, in the experiment with SK-MEL-5 melanoma and in the experiment with HT29 colon was greater than 100 µM throughout.
With `COc1ccc(-c2cc(/C=C/C(=O)c3ccc(OC)c(OC)c3)[nH]n2)cc1`, the GI50 in the experiment with UACC-257 melanoma was 1.73 µM; in the experiment on SF-268 CNS, 1.94 µM; with HCT-15 colon it was 1.35 µM; in the experiment with SNB-75 CNS it was 1.55 µM; in the experiment on OVCAR-4 ovarian, 0.509 µM; in the experiment with MOLT-4 leukemia, 2.67 µM. The GI50 with SN12C renal is 1.64 µM; in the experiment with M14 melanoma, 2.17 µM; in the experiment with SK-MEL-5 melanoma it was 1.77 µM; with HT29 colon, 1.55 µM. The TGI in the experiment with UACC-257 melanoma was 3.65 µM; in the experiment on SF-268 CNS, 4.83 µM; with HCT-15 colon, 3.56 µM; with SNB-75 CNS it was 3.84 µM; with OVCAR-4 ovarian, 3.87 µM; in the experiment on MOLT-4 leukemia it was 8 µM. Besides, the TGI came to 3.78 µM with SN12C renal, 4.97 µM in the experiment on M14 melanoma, 3.72 µM in the experiment with SK-MEL-5 melanoma and 3.45 µM with HT29 colon.
For the compound `O=[N+]([O-])c1cccc2ccc(N/N=C/c3ccccc3O)nc12`, the GI50 in the experiment on UACC-257 melanoma was greater than 100 µM; in the experiment with SF-268 CNS it was greater than 100 µM; in the experiment with HCT-15 colon it was greater than 100 µM; in the experiment with SNB-75 CNS, greater than 37.8 µM; in the experiment with OVCAR-4 ovarian, greater than 100 µM; in the experiment with MOLT-4 leukemia it was 0.313 µM. Also, the GI50 with SN12C renal, in the experiment on M14 melanoma, in the experiment on SK-MEL-5 melanoma and in the experiment with HT29 colon was greater than 100 µM in each case. The TGI was greater than 100 µM in the experiment with UACC-257 melanoma; greater than 100 µM in the experiment on SF-268 CNS; greater than 100 µM in the experiment on HCT-15 colon; greater than 70.6 µM in the experiment on SNB-75 CNS; greater than 100 µM with OVCAR-4 ovarian; 1.16 µM in the experiment on MOLT-4 leukemia. The TGI with SN12C renal, in the experiment on M14 melanoma, in the experiment on SK-MEL-5 melanoma and in the experiment on HT29 colon was greater than 100 µM in each case.
For the compound `Oc1ccc2ccccc2c1N=Nc1ccc(Br)cc1`, the TGI with UACC-257 melanoma is greater than 100 µM; with SF-268 CNS, greater than 100 µM; in the experiment on HCT-15 colon it was greater than 100 µM; in the experiment with SNB-75 CNS, greater than 100 µM; in the experiment with OVCAR-4 ovarian, 96.3 µM; in the experiment with MOLT-4 leukemia, greater than 100 µM. For the same compound, the TGI with SN12C renal, in the experiment with M14 melanoma, in the experiment with SK-MEL-5 melanoma and in the experiment on HT29 colon was greater than 100 µM throughout.
On to `O=C(/C=C/C=C/c1ccccc1)c1ccccc1`, for which the TGI was determined as 34.2 µM in the experiment with UACC-257 melanoma; 38.2 µM with SF-268 CNS; 28.8 µM in the experiment on HCT-15 colon; 41.9 µM in the experiment with SNB-75 CNS; 39.7 µM with OVCAR-4 ovarian; 49.4 µM in the experiment with MOLT-4 leukemia. Besides, the TGI in the experiment on SN12C renal came to 29.7 µM; with M14 melanoma, 33.6 µM; in the experiment on SK-MEL-5 melanoma, 30.2 µM; in the experiment on HT29 colon it was 30.8 µM.
